In patent US6908935B2, “Calcium receptor modulating agents” (Amgen Inc., priority 2002, dated 2005):

Biological target: T1, human parathyroid cell Ca^2+ receptor (hPCaR) (Homo sapiens, UniProt P41180)
T1 construct: expressed in transfected cells
T1 sequence (P41180 20-1078): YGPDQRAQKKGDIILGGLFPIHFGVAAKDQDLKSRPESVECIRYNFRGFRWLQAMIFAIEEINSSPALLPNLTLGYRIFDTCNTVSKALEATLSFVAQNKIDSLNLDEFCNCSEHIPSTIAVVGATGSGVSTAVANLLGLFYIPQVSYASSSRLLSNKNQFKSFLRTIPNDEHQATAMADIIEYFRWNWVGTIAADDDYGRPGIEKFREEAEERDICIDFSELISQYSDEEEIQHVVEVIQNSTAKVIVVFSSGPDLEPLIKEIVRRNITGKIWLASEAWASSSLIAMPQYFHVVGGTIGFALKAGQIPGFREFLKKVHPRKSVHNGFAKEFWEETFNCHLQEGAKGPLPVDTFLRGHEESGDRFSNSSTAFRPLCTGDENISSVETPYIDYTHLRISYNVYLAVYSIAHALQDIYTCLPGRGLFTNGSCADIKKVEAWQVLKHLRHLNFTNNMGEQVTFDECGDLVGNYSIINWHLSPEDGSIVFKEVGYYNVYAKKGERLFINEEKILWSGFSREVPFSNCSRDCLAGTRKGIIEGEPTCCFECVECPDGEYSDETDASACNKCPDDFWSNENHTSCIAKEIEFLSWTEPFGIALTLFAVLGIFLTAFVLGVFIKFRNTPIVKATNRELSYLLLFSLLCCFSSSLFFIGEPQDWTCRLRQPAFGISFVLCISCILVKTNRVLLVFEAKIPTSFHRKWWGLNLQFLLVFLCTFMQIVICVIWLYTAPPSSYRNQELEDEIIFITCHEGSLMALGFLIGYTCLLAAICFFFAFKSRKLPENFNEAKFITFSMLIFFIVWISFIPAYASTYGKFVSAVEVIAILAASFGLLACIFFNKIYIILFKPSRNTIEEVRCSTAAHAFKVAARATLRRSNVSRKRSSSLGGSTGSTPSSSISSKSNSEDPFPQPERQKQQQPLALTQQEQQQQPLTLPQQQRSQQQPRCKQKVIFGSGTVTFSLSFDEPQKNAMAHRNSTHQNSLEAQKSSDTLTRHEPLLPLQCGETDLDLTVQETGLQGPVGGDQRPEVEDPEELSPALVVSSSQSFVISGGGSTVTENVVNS
Assay: [Ca2+]i measurement with fluo-3 in HEK 293 4.0-7 cells stably transfected with hPCaR
Type: cell-based
Details: fluo-3 fluorescence (485/530 nm), effect on [Ca^2+]i
Protocol: The activities of the compounds of the present invention on calcium receptors were measured. In one embodiment, the measurement was performed in accordance with the method described in Example 4 of Nemeth et al., PCT/US95/13704 (International Publication No. WO96/12697) herein incorporated by reference.
A 4.0-kb NotI-HindIII fragment of the human parathyroid cell Ca^2+ receptor (hPCaR) cDNA was subcloned into the mammalian expression vector pCEP4 (Invitrogen) containing the hygromycin-resistant gene as a selectable marker. This plasmid was transfected into HEK 293 cells by calcium phosphate precipitation. Transfected cells were grown in Dulbecco's modified Eagle's medium containing 10% fetal bovine serum and hygromycin (200 μg/mL). Hygromycin-resistant colonies were subcloned and assayed for hPCaR mRNA by solution hybridization using a ^32P-labeled RNA probe complementary to the (4.0 kb) hPCaR sequence (Garrett, et al., J. Biol. Chem. 270, 12919-12925 (1995)). Clone 7 was used to assess the effects of compounds on [Ca^2+]i. This stably transfected cell line is termed HEK 293 4.0-7. For measurements of [Ca^2+]i, the cells were recovered from tissue culture flasks by brief treatment with 0.02% EDTA and then washed and resuspended in PCB containing 1 mM CaCl2 and 0.1% Bovine Serum Albumin (“BSA”). The cells were loaded with fluo-3 by incubation for 30 min at 37° C., with parathyroid cell buffer (126 mM NaCl, 4 mM KCl, 1 mM MgSO4, 0.7 mM K2HPO/KH2PO4, 20 mM HEPES.NaOH (pH 7.45)) containing 0.5% BSA in lmM CaCl2 and 2 μM fluo-3 acetoxymethyl ester. The cells were subsequently washed, each test compound was added to the cells and the fluorescence was recorded by using excitation and emission wavelengths of 485 and 530 nm, respectively.

| SMILES | EC50 [µM] |
| --- | --- |
| COc1ccc(CN[C@H](C)c2cccc3ccccc23)cc1-c1ccc(=O)n(C)c1 [1-methyl-5-(2-(methyloxy)-5-((((1R)-1-(1-naphthalenyl)ethyl)amino)methyl)phenyl)-2-(1H)-pyridinone] | ≤ 10 |
| COc1cccc([C@@H](C)NCc2ccc(OC)c(-c3ccc(=O)n(C)c3)c2)c1 [1-methyl-5-(2-(methyloxy)-5-((((1R)-1-(3-(methyloxy)phenyl)ethyl)amino)methyl)phenyl)-2(1H)-pyridinone] | ≤ 10 |
| COc1ccc(CN[C@H](C)c2ccccc2)cc1-c1ccc(=O)n(C)c1 [1-methyl-5-(2-(methyloxy)-5-((((1R)-1-phenylethyl)amino)methyl)phenyl)-2(1H)-pyridinone] | ≤ 10 |
| COc1ccc(CN[C@H](C)c2cccc3ccccc23)cc1-c1ccc2c(ccn2CC(N)=O)c1 [2-(5-(2-(methyloxy)-5-((((1R)-1-(1-naphthalenyl)ethyl)amino)methyl)phenyl)-1H-indol-1-yl)acetamide] | ≤ 10 |
| COc1cccc([C@@H](C)NCc2ccc(OC)c(-c3ccc4c(ccn4CC(N)=O)c3)c2)c1 [2-(5-(2-(methyloxy)-5-((((1R)-1-(3-(methyloxy)phenyl)ethyl)amino)methyl)phenyl)-1H-indol-1-yl)acetamide] | ≤ 10 |
| COc1ccc(CN[C@H](C)c2ccccc2)cc1-c1ccc2c(ccn2CC(N)=O)c1 [2-(5-(2-(methyloxy)-5-((((1R)-1-phenylethyl)amino)methyl)phenyl)-1H-indol-1-yl)acetamide] | ≤ 10 |
| COc1ccc(CN[C@H](C)c2cccc3ccccc23)cc1-c1cccc(C#N)c1 [2′-(methyloxy)-5′-((((1R)-1-(1-naphthalenyl)ethyl)amino)methyl)-1,1′-biphenyl-3-carbonitrile] | ≤ 10 |
| COc1ccc(CN[C@H](C)c2cccc3ccccc23)cc1-c1cccc(C(N)=O)c1 [2′-(methyloxy)-5′-((((1R)-1-(1-naphthalenyl)ethyl)amino)methyl)-1,1′-biphenyl-3-carboxamide] | ≤ 10 |
| COc1ccc(CN[C@H](C)c2cccc3ccccc23)cc1-c1cccc(C(=O)O)c1 [2′-(methyloxy)-5′-((((1R)-1-(1-naphthalenyl)ethyl)amino)methyl)-1,1′-biphenyl-3-carboxylic acid] | ≤ 10 |
| COc1ccc(CN[C@H](C)c2cccc3ccccc23)cc1-c1ccc(C(N)=O)cc1 [2′-(methyloxy)-5′-((((1R)-1-(1-naphthalenyl)ethyl)amino)methyl)-1,1′-biphenyl-4-carboxamide] | ≤ 10 |
| COc1cccc([C@@H](C)NCc2ccc(OC)c(-c3cccc(C#N)c3)c2)c1 [2′-(methyloxy)-5′-((((1R)-1-(3-(methyloxy)phenyl)ethyl)amino)methyl)-1,1′-biphenyl-3-carbonitrile] | ≤ 10 |
| COc1cccc([C@@H](C)NCc2ccc(OC)c(-c3cccc(C(N)=O)c3)c2)c1 [2′-(methyloxy)-5′-((((1R)-1-(3-(methyloxy)phenyl)ethyl)amino)methyl)-1,1′-biphenyl-3-carboxamide] | ≤ 10 |
| COc1cccc([C@@H](C)NCc2ccc(OC)c(-c3cccc(C(=O)O)c3)c2)c1 [2′-(methyloxy)-5′-((((1R)-1-(3-(methyloxy)phenyl)ethyl)amino)methyl)-1,1′-biphenyl-3-carboxylic acid] | ≤ 10 |
| COc1cccc([C@@H](C)NCc2ccc(OC)c(-c3ccc(C(N)=O)cc3)c2)c1 [2′-(methyloxy)-5′-((((1R)-1-(3-(methyloxy)phenyl)ethyl)amino)methyl)-1,1′-biphenyl-4-carboxamide] | ≤ 10 |
| COc1ccc([C@@H](C)NCc2ccc(OC)c(-c3cccc(C#N)c3)c2)cc1 [2′-(methyloxy)-5′-((((1R)-1-(4-(methyloxy)phenyl)ethyl)amino)methyl)-1,1′-biphenyl-3-carbonitrile] | ≤ 10 |
| COc1ccc(CN[C@H](C)c2ccc(C)cc2)cc1-c1cccc(C#N)c1 [2′-(methyloxy)-5′-((((1R)-1-(4-methylphenyl)ethyl)amino)methyl)-1,1′-biphenyl-3-carbonitrile] | ≤ 10 |
| COc1ccc(CN[C@H](C)c2ccccc2)cc1-c1cccc(C#N)c1 [2′-(methyloxy)-5′-((((1R)-1-phenylethyl)amino)methyl)-1,1′-biphenyl-3-carbonitrile] | ≤ 10 |
| COc1ccc(CN[C@H](C)c2ccccc2)cc1-c1cccc(C(N)=O)c1 [2′-(methyloxy)-5′-((((1R)-1-phenylethyl)amino)methyl)-1,1′-biphenyl-3-carboxamide] | ≤ 10 |
| COc1ccc(CN[C@H](C)c2ccccc2)cc1-c1cccc(C(=O)O)c1 [2′-(methyloxy)-5′-((((1R)-1-phenylethyl)amino)methyl)-1,1′-biphenyl-3-carboxylic acid] | ≤ 10 |

Continued, values first:

| EC50 [µM] | SMILES |
| --- | --- |
| ≤ 10 | COc1ccc(CNC(C)c2cccc(N(C)C)c2)cc1-c1ccc(C(F)(F)F)cc1 (stereo not shown) |
| ≤ 10 | COc1cccc([C@@H](C)NCc2ccc(OC)c(-c3csc(N4CCCCC4)n3)c2)c1 |
| ≤ 10 | COc1cccc([C@@H](C)NCc2ccc(OC)c(-c3ccc4oc(C)nc4c3)c2)c1 |
| ≤ 10 | COc1ccc(CN[C@H](C)c2cccc3ccccc23)cc1-c1ccc(C(F)(F)F)nc1 |
| ≤ 10 | COc1ccc(CN[C@H](C)c2cccc(C#N)c2)cc1-c1ccc(C(F)(F)F)cc1 (stereo in doubt) [3-(1-(((6-(methyloxy)-4′-(trifluoromethyl)-1,1′-biphenyl-3-yl)methyl)amino)ethyl)benzonitrile] |
| ≤ 10 | COc1ccc(CNC(C)c2cccc(Cl)c2Cl)cc1-c1ccc(C(F)(F)F)cc1 (stereo not shown) [1-(2,3-dichlorophenyl)-N-((6-(methyloxy)-4′-(trifluoromethyl)-1,1′-biphenyl-3-yl)methyl)ethanamine] |
| ≤ 10 | COCCn1cc(-c2cc(CN[C@H](C)c3cccc4ccccc34)ccc2OC)ccc1=O [1-(2-(methyloxy)ethyl)-5-(2-(methyloxy)-5-((((1R)-1-(1-naphthalenyl)ethyl)amino)methyl)phenyl)-2(1H)-pyridinone] |
| ≤ 10 | COCCn1cc(-c2cc(CN[C@H](C)c3cccc(OC)c3)ccc2OC)ccc1=O [1-(2-(methyloxy)ethyl)-5-(2-(methyloxy)-5-((((1R)-1-(3-(methyloxy)phenyl)ethyl)amino)methyl)phenyl)-2-(1H)-pyridinone] |
| ≤ 10 | COc1ccc(CNC(C)c2cc(F)cc(F)c2)cc1-c1ccc(C(F)(F)F)cc1 (stereo not shown) [1-(3,5-difluorophenyl)-N-((6-(methyloxy)-4′-(trifluoromethyl)-1,1′-biphenyl-3-yl)methyl)ethanamine] |
| ≤ 10 | COc1ccc(CNC(C)c2cccc(Br)c2)cc1-c1ccc(C(F)(F)F)cc1 (stereo not shown) [1-(3-bromophenyl)-N-((6-(methyloxy)-4′-(trifluoromethyl)-1,1′-biphenyl-3-yl)methyl)ethanamine] |
| ≤ 10 | COc1ccc(CNC(C)c2cccc(F)c2)cc1-c1ccc(C(F)(F)F)cc1 (stereo not shown) [1-(3-fluorophenyl)-N-((6-(methyloxy)-4′-(trifluoromethyl)-1,1′-biphenyl-3-yl)methyl)ethanamine] |
| ≤ 10 | COc1ccc(CNC(C)c2ccc(F)cc2)cc1-c1ccc(C(F)(F)F)cc1 (stereo not shown) [1-(4-fluorophenyl)-N-((6-(methyloxy)-4′-(trifluoromethyl)-1,1′-biphenyl-3-yl)methyl)ethanamine] |
